Experiments:
Format in all cases: functional
Fusarium graminearum = assay: Antifungal activity against Fusarium graminearum at 100 ug after 7 days by poison-food method; details: 168 h, read-out: IZ
Micrococcus luteus = assay: Antibacterial activity against Micrococcus luteus at 100 ppm after 24 hr by cup-plate method; details: read-out: IZ
Escherichia coli = assay: Antibacterial activity against Escherichia coli at 100 ppm after 24 hr by cup-plate method; details: read-out: IZ
Staphylococcus aureus = assay: Antibacterial activity against Staphylococcus aureus at 100 ppm after 24 hr by cup-plate method; details: read-out: IZ

**Q.** What does the source list for Cc1ccc(N2C(=O)CC3c4ccc5ccccc5c4OC32)cc1 (stereo not drawn)?
**A.** zone of inhibition at 100 µg/disc (Fusarium graminearum): 50 mm; zone of inhibition at 100 ppm (Micrococcus luteus): 18 mm; zone of inhibition at 100 ppm (Escherichia coli): 10 mm; zone of inhibition at 100 ppm (Staphylococcus aureus): 11 mm

**Q.** For O=C1CC2c3ccc4ccccc4c3OC2N1c1ccccc1 (stereo not drawn), which zone of inhibition at 100 µg/disc (Fusarium graminearum) is on record?
**A.** Its zone of inhibition at 100 µg/disc is 45 mm.

**Q.** And the zone of inhibition at 100 ppm (Micrococcus luteus)?
**A.** Its zone of inhibition at 100 ppm is 11 mm.

**Q.** And the zone of inhibition at 100 ppm (Escherichia coli)?
**A.** Its zone of inhibition at 100 ppm is 11 mm.

**Q.** And the zone of inhibition at 100 ppm (Staphylococcus aureus)?
**A.** Its zone of inhibition at 100 ppm is 10 mm.

**Q.** What does the source list for O=C1CC2c3ccc4ccccc4c3OC2N1c1ccc([N+](=O)[O-])cc1 (stereo not drawn)?
**A.** zone of inhibition at 100 µg/disc (Fusarium graminearum): 25 mm; zone of inhibition at 100 ppm (Micrococcus luteus): 10 mm; zone of inhibition at 100 ppm (Escherichia coli): 8 mm; zone of inhibition at 100 ppm (Staphylococcus aureus): 8 mm

**Q.** Which results are given for O=C1CC2c3ccc4ccccc4c3OC2O1 (stereo not drawn)?
**A.** zone of inhibition at 100 µg/disc (Fusarium graminearum): 45 mm; zone of inhibition at 100 ppm (Micrococcus luteus): 10 mm; zone of inhibition at 100 ppm (Escherichia coli): 11 mm; zone of inhibition at 100 ppm (Staphylococcus aureus): 10 mm

**Q.** Which zone of inhibition at 100 µg/disc (Fusarium graminearum) does the source give for O=C1CC2c3ccc4ccccc4c3OC2N1c1cccc([N+](=O)[O-])c1 (stereo not drawn) here?
**A.** Its zone of inhibition at 100 µg/disc is 25 mm.

**Q.** What about the zone of inhibition at 100 ppm (Micrococcus luteus) of the same compound?
**A.** Its zone of inhibition at 100 ppm is 9 mm.

**Q.** What about the zone of inhibition at 100 ppm (Escherichia coli) of the same compound?
**A.** Its zone of inhibition at 100 ppm is 9 mm.

**Q.** And the zone of inhibition at 100 ppm (Staphylococcus aureus)?
**A.** Its zone of inhibition at 100 ppm is 21 mm.

**Q.** How did the zone of inhibition at 100 ppm (Micrococcus luteus) turn out when CC1(C)S[C@@H]2[C@H](NC(=O)[C@H](N)c3ccccc3)C(=O)N2[C@H]1C(=O)O [AMPICILLIN] was run?
**A.** The zone of inhibition at 100 ppm was 5 mm.

**Q.** And the zone of inhibition at 100 ppm (Escherichia coli)?
**A.** The zone of inhibition at 100 ppm was 4 mm.

**Q.** What about the zone of inhibition at 100 ppm (Staphylococcus aureus) of the same compound?
**A.** Its zone of inhibition at 100 ppm is 5 mm.

— ChEMBL document CHEMBL3045575, “Synthesis of tetracyclic aza-/oxa-naphthalen-8-ones and their antimicrobial activity” (2013)
